Measured values: ChEMBL document CHEMBL1154917, “Flavanone and diphenylpropane glycosides and glycosidic acyl esters from Viscum articulatum” (J Nat Prod, 2010)

Key:
[1] = tested on: Radical scavenging activity; test: Antioxidant activity assessed as DPPH radical scavenging activity after 30 mins; assay type: functional
[2] = Cytotoxicity against mouse RAW264.7 cells assessed as cell viability at 1 to 20 uM after 24 hrs by MTT assay relative to control; assay type: cell-based; settings: read-out: Activity
[3] = tested on: RAW264.7; test: Antiinflammatory activity against mouse RAW264.7 cells assessed as Inhibition of LPS-induced nitric oxide production after 24 hrs by ELISA; assay type: functional, cell-based; settings: RAW264.7, 24 h

Row | IC50 [3] | Compound | ED50 [1] | viability at 24 h, up to 20 µM [2]
1 | – | Cc1c(C)c2c(c(C)c1O)CC[C@@](C)(CCC[C@H](C)CCC[C@H](C)CCCC(C)C)O2 | 28.4 µM | –
2 | 19.2 µM | O=C1C[C@@H](c2ccccc2)Oc2cc(O[C@@H]3O[C@H](CO)[C@@H](O)[C@H](O)[C@H]3O)cc(O)c21 | > 100 µM | 74.5%
3 | 23.4 µM | COc1cc([C@@H]2CC(=O)c3c(O)cc(O[C@@H]4O[C@H](CO)[C@@H](O)[C@H](O)[C@H]4O)cc3O2)ccc1O | 100 µM | 88.7%
4 | 14.9 µM | O=C(/C=C/c1ccccc1)OC[C@@]1(O)CO[C@@H](O[C@H]2[C@H](Oc3cc(O)c4c(c3)O[C@H](c3ccc(O)c(O)c3)CC4=O)O[C@H](CO)[C@@H](O)[C@@H]2O)[C@@H]1O [VISARTISIDE C] | > 100 µM | 99.7%
5 | 15.6 µM | O=C(/C=C/c1ccccc1)O[C@H]1[C@H](Oc2cc(O)c3c(c2)O[C@H](c2ccc(O)c(O)c2)CC3=O)O[C@H](CO)[C@@H](O)[C@@H]1O [VISARTISIDE A] | 37.6 µM | 100%
6 | 39.6 µM | O=C(/C=C/c1ccccc1)OC[C@@]1(O)CO[C@@H](O[C@@H]2[C@@H](O)[C@H](OCc3ccccc3)O[C@H](CO)[C@H]2O)[C@@H]1O [VISARTISIDE E] | > 100 µM | 88.1%
7 | 30.2 µM | COc1cc(CCCc2c(OC)cc(O)c(OC)c2OC)ccc1O[C@@H]1O[C@H](CO)[C@@H](O)[C@H](O)[C@H]1O | > 100 µM | 77%
8 | 25.1 µM | O=C(/C=C/c1ccccc1)OC[C@H]1O[C@@H](Oc2cc(O)c3c(c2)O[C@H](c2ccc(O)c(O)c2)CC3=O)[C@H](O)[C@@H](O)[C@@H]1O [VISARTISIDE B] | 34.1 µM | 100%
9 | 27.8 µM | COc1ccc(/C=C/CO[C@@H]2O[C@H](CO)[C@@H](O)[C@H](O[C@@H]3OC[C@](O)(COC(=O)/C=C/c4ccccc4)[C@H]3O)[C@H]2O)cc1O [VISARTISIDE F] | > 100 µM | 85.2%
10 | 41.2 µM | O=C1C[C@@H](c2ccc(O)c(O)c2)Oc2cc(O[C@@H]3O[C@H](CO)[C@@H](O)[C@H](O)[C@H]3O)cc(O)c21 | 63.3 µM | 100%
11 | 42.6 µM | O=C1C[C@@H](c2ccc(O)cc2)Oc2cc(O[C@@H]3O[C@H](CO)[C@@H](O)[C@H](O)[C@H]3O)cc(O)c21 [PRUNIN] | > 100 µM | 100%
12 | 32.3 µM | O=C(/C=C/c1ccccc1)OC[C@@]1(O)CO[C@@H](O[C@@H]2[C@@H](O)[C@@H](O)O[C@H](CO)[C@H]2O)[C@@H]1O [VISARTISIDE D] | > 100 µM | 80.2%

Row | Compound | IC50 [3] | ED50 [1] | viability at 24 h, up to 20 µM [2]
13 | O=c1c(O)c(-c2ccc(O)c(O)c2)oc2cc(O)cc(O)c12 [QUERCETIN] | 32.1 µM | – | 100%
